Experimental data as given in paper PMC5539197, “CD14 is critical for TLR2-mediated M1 macrophage activation triggered by N-glycan recognition” (Scientific Reports, 2017).

Molecular target: T1, ArtinM (Artocarpus integer, UniProt Q7M1T4)
T1 construct: tetramer
T1 sequence (Q7M1T4 1-149): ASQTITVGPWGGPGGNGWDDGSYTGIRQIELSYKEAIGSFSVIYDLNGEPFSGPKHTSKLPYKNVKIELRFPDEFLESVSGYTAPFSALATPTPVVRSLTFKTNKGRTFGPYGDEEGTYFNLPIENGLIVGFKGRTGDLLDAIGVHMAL
Assay: inhibition of lectin precipitation, western blot
Format: binding
Settings: 1 mM trimannoside pre-incubated, 4 °C; lysate of HEK cells transfected with CD14 or TLR2; carbohydrate recognition site, competes with glycoprotein N-glycans
Description: inhibition of lectin precipitation, western blot on […] | CD14 and TLR2 were not detected when the procedure was carried out with […]

Compound: OC[C@H]1O[C@H](OC[C@H]2OC(O)[C@@H](O)[C@@H](O[C@H]3O[C@H](CO)[C@@H](O)[C@H](O)[C@@H]3O)[C@@H]2O)[C@@H](O)[C@@H](O)[C@@H]1O (stereo partly shown) [Manα1-3(Manα1-6)Man]
- inhibition of lectin precipitation, western blot: CD14 and TLR2 were not detected when the procedure was carried out with ArtinM
